Data set [1] in a line: Ex vivo metabolism of LAT8881 in rat whole blood. Type of data set: in vitro ADME. Particulars: rat blood, LAT8881-spiked, 37° C.; read-out: ex vivo half-life. The procedure: (§1) Human or rat blood was collected into K2EDTA tubes and approximately 2.94 mL of blood was transferred into a polypropylene tube and kept in a water bath at 37° C. […] At the indicated times, approximately 300 μL of the spiked blood sample was transferred into a vial containing 30 μL of OX Protease Inhibitor Cocktail (Sigma Aldrich; Product No. P2714), mixed well and centrifuged at 4° C. The plasma fraction was then collected, transferred into polypropylene tubes and stored at -80° C. […] […] NO:11)) and vortex-mixed with 200 μL of acetonitrile for 5 min at 1500 rpm. The resulting mixture was then centrifuged at 14000 rpm for 5 min and the supernatant was evaporated at 37° C. under a stream of nitrogen to dryness. The residue was reconstituted in 150 μL of reconstitution solution and approximately 150 μL of the reconstituted sample was transferred to a 96 well-plate for injection into the LC-MS system. […] The mobile phase was (a) 5% acetonitrile/water with 0.1% formic acid, and (b) 95% acetonitrile/water with 0.1% formic acid. Eluted peaks were analysed using mass spectrometry. For the analysis of LAT9998 (SEQ ID NO:11), a 5 μL aliquot of each plasma sample was injected into a Shimadzu Nexera UPLC system equipped with a Phenomenex Aeris Peptide XB-C18, 3.6 μm, 150×2.1 mm. The mobile phase was (a) 5% acetonitrile/water with 0.1% formic acid, and (b) 95% acetonitrile/water with 0.1% formic acid. Eluted peaks were analysed using mass spectrometry. Samples were analysed using an AB Sciex QTrap 5500 mass spectrometer with ESI in positive mode. MRM analyses were conducted with Ion Spray (IS) at 5500 V and the Curtain Gas (CUR) was set at 20. Multiple MRM transitions were monitored to ensure the chromatographic peaks observed are from the nominal compound. Results are reported as analyte peak area ratios (normalized versus internal standard peak area).

The conditions of data set [2]: in vivo.
Data set [3] can be described thus: Ex vivo metabolism of LAT8881 in human whole blood. Particulars: human blood, LAT8881-spiked, 37° C.; read-out: ex vivo half-life. Type of data set: in vitro ADME. As for the experimental part: as §1

SMILES strings stand for the structures. Like-named read-outs stand apart in the source and are kept apart here. Positions of bridges follow the written chain, without caps; N, C: chain ends. Residues, ends and D or L forms follow the SMILES beside them.

Broadly, the half-life is how long it takes for the measured level to halve.

With `CC[C@H](C)[C@H](NC(=O)[C@H](CCCNC(=N)N)NC(=O)[C@H](CC(C)C)NC(=O)[C@@H](N)Cc1ccc(O)cc1)C(=O)N[C@H](C(=O)N[C@@H](CCC(N)=O)C(=O)N[C@H]1CSSC[C@@H](C(=O)NCC(=O)N[C@@H](Cc2ccccc2)C(=O)O)NC(=O)[C@H](CO)NC(=O)CNC(=O)[C@H](CCC(=O)O)NC(=O)[C@H](C(C)C)NC(=O)[C@H](CO)NC(=O)[C@H](CCCNC(=N)N)NC1=O)C(C)C` [LAT8881, YLRIVQCRSVEGSCGF] (H-YLRIVQCRSVEGSCGF-OH; disulfide 7-14; N-terminus and C-terminus assumed), the half-life in data set [1] is 3 to 6 min; in data set [2] it was less than 1 min; in data set [3], 3 to 6 min.

These data come from patent US20200390850A1, “PEPTIDES AND USES THEREOF” (LATERAL IP PTY LTD, priority 2018, published 2020).
